This is an account of results in US20040198653A1, “Pharmaceutical compositions which inhibit proliferation of pituitary adenomas and method of use thereof” (priority 2001, published 2004).

Data set [1] concerns pituitary adenoma cells. Kind of data set: DNA synthesis: [3H]thymidine incorporation in pituitary adenoma cells. In kind it is cell-based. Conditions: 10^-9 M, 48 h incubation, medium with 10% FBS, pituitary cells from functioning adenomas. How it is done:
The effects of SSTR selective agonists and antagonists on pituitary adenoma cell DNA synthesis were assessed by determining the rate of [^3H]thymidine incorporation, as previously described (Davis L, et al., 1994 In: Basic methods in Molecular Biology, 2nd edition, Appleton & Lange, Norwalk, Conn., USA: 611-646, degli Uberti E C, et al., 1991 J Clin Endocrinol Metab 72: 1364-1371).
Approximately 10^5 pituitary cells from two functioning adenomas were plated in quadruplicate wells the day of surgery and treated the day after with SRIF and with Compounds 1, 2, 3, and LANREOTIDE at 10^−9M. After 48 h incubation in a medium supplemented with 10% FBS in the presence of [^3H]thy (1.5 μCi/mL; 87 Ci/mmol) with or without each SRIF analogue. Treatments were renewed by adding fresh analogues to the wells after the first 24 h of incubation, without removing the medium.
After incubation, the cells were washed three times with ice-cold PBS and twice with 10% ice-cold trichloroacetic acid (TCA). TCA-precipitated material was solubilized in 500 μL 0.2 mol/L sodium hydroxide and 0.1% SDS. Cell-associated radioactivity was then counted in a scintillation spectrometer. Results (counts per min per well) were obtained by determining the mean value of at least six experiments in quadruplicate. The viability of cells in control and treated cultures was evaluated by Trypan blue staining.
For orientation: Dividing cells build labelled thymidine or BrdU into new DNA.

For data set [2], the system named is pituitary adenoma cells. Kind of data set: Cell proliferation: CELLTITER 96 Aqueous (MTS/PMS) assay, number of viable cells. In kind it is cell-based. Conditions: 10^-9 M, 48 hours incubation, medium with 10% FBS, absorbance at 490 nm. The protocol:
The effects of SSTR selective agonists on pituitary adenoma cell proliferation were assessed by the CELLTITER 96 Aqueous Non-Radioactive Cell Proliferation Assay (Promega, Milano, Italy), a colorimetric method for determining the number of viable cells in proliferation assays. The assay contains solutions of a tetrazolium compound (Owen's reagent; MTS) and an electron coupling reagent (phenazine methosulphate; PMS). MTS is bioreduced by cells into a formazan that is soluble in tissue culture medium. The absorbance of the formazan at 490 nm can be measured directly from 96 well assay plates (Zatelli M C, et al., 2000 J Clin Endocrinol Metab 85: 847-852; Cory A H, et al., 1991 Cancer Commun 3: 207-212). The conversion of MTS into the aqueous soluble formazan is accomplished by dehydrogenase enzymes found in metabolically active cells. The quantity of formazan product as measured by the amount of 490 nm absorbance is directly proportional to the number of living cells in culture.
Briefly, adenoma cells were plated in 96-multiwell plates (2×10^4 cells/well) and incubated for 48 hours in a medium supplemented with 10% FBS in the presence or absence of each SRIF analogue (including in one instance, compounds 2 & 3 together) at a concentration of 10^−9 M. Treatments were renewed by adding fresh analogues to the wells after the first 24 hours of incubation. At the end of the incubation period, 20 μl of a combined MTS/PMS solution was added to each well with a repeating pipette, and the plates were incubated for an additional 4 hours at 37° C. in a humidified 5% CO2 atmosphere. The absorbance at 490 nm was then recorded using an ELISA plate reader (EASIA Reader, Medgenix). Results (absorbance at 490 nm) were obtained by determining the mean value of at least six experiments in eight replicates.

Each structure is given as a SMILES string. Where a SMILES comes first, the peptide text is derived from it. Bridges are numbered along the chain shown (N, C = ends). [ ]: non-standard residue; d: D form. The star is where a group is joined. Gly(N-2-aminoethyl) = NCCNCC(=O)O; 3Pal = N[C@@H](Cc1cccnc1)C(=O)O; Tic = O=C(O)[C@@H]1Cc2ccccc2CN1; X1 = Nc1ccn(CC(=O)*)c(=O)n1; Abu = CC[C@H](N)C(=O)O; Bn = c1ccc(C*)cc1

`CC[C@@H]1NC(=O)[C@H](CCCCN)NC(=O)[C@@H](Cc2c[nH]c3ccccc23)NC(=O)[C@H](Cc2ccc(O)cc2)NC(=O)[C@@H]2Cc3ccccc3CN2C(=O)[C@H](Cc2ccccc2)NC1=O` [Compound 2, cyclo[Tic-Tyr-D-Trp-Lys-Abu-Phe]] (cyclo([Tic]Y[dW]K[Abu]F)): the “% Reduction [3H]Thymidine” value in data set [1] was 25. %. Also, the “% Reduction Viable Cells” value in data set [2] was found to be 12.5%.

In the case of `CC(C)[C@@H]1NC(=O)[C@H](CCCCN)NC(=O)[C@@H](Cc2c[nH]c3ccccc23)NC(=O)[C@H](Cc2ccc(O)cc2)NC(=O)[C@@H](NC(=O)[C@H](N)Cc2ccc3ccccc3c2)CSSC[C@@H](C(=O)N[C@H](C(N)=O)[C@@H](C)O)NC1=O` [LANREOTIDE, D-Nal-cyclo[Cys-Tyr-D-Trp-Lys-Val-Cys]-Thr-NH2, reference compound], in data set [1], the “% Reduction [3H]Thymidine” value is 25. %. In addition, the “% Reduction Viable Cells” value in data set [2] was found to be 12. %.

`C[C@@H](O)[C@H](NC(=O)[C@H](Cc1ccccc1)NC(=O)[C@@H](NC(=O)[C@H](CCCCN)NC(=O)[C@@H](Cc1c[nH]c2ccccc12)NC(=O)[C@H](Cc1c[nH]c2ccccc12)NC(=O)[C@H](Cc1ccccc1)NC(=O)[C@H](N)Cc1ccccc1)[C@@H](C)O)C(N)=O` [Compound 3, D-Phe-Phe-Trp-D-Trp-Lys-Thr-Phe-Thr-NH2]: the “% Reduction [3H]Thymidine” value in data set [1] is 15.5%.

With `C[C@H](N)C(=O)NCC(=O)N[C@H]1CSSC[C@@H](C(=O)O)NC(=O)[C@H](CO)NC(=O)[C@H]([C@@H](C)O)NC(=O)[C@H](Cc2ccccc2)NC(=O)[C@H]([C@@H](C)O)NC(=O)[C@H](CCCCN)NC(=O)[C@H](Cc2c[nH]c3ccccc23)NC(=O)[C@H](Cc2ccccc2)NC(=O)[C@H](Cc2ccccc2)NC(=O)[C@H](CC(N)=O)NC(=O)[C@H](CCCCN)NC1=O` [SRIF, reference compound], the “% Reduction Viable Cells” value in data set [2] is reported as 8. %.

In the case of `C[C@@H](OCc1ccccc1)[C@H](NC(=O)[C@H]1CSSC[C@@H](NC(=O)CN(CCN)C(=O)Cn2ccc(N)nc2=O)C(=O)N[C@@H](Cc2cccnc2)C(=O)N[C@H](Cc2c[nH]c3ccccc23)C(=O)N[C@@H](CCCCN)C(=O)N1)C(=O)N[C@@H](Cc1ccc(O)cc1)C(N)=O` [Compound 1, Caeg-c(D-Cys-Pal-D-Trp-Lys-D-Cys)-Thr(Bzl)-Tyr-NH2] (X1-[Gly(N-2-aminoethyl)][dC][3Pal][dW]K[dC]T(Bn)Y-NH2; disulfide 2-6), in data set [2], the “% Reduction Viable Cells” value came to 28.5%.
